The test system of one assay is HepG2. As to the kind of experiment: Cytotoxicity in HepG2-T14 cancer cell line. Format: functional, cell-based. The following applies: Homo sapiens.
A further assay relates to KB VCR R. Description: Cytotoxicity in KB VCR R cancer cell line. Format: functional, cell-based. The following applies: Homo sapiens.
Assay [1] relates to KB. As to the kind of experiment: Cytotoxicity in KB cancer cell line. Format: functional, cell-based. The following applies: Homo sapiens.
The subject of another assay is MCF7. As to the kind of experiment: Cytotoxicity in MCF-7 cancer cell line. Format: functional, cell-based. The settings on record: Homo sapiens.
Another assay concerns SW480. As to the kind of experiment: Cytotoxicity in SW480 cancer cell line. Format: functional, cell-based. The following applies: Homo sapiens.
Assay [2] can be described thus: Compound was tested for the production of cellular protein-linked DNA breaks when administered at a dose of 25 ug/mL. Format: functional.
Assay [3] has as its system KB. As to the kind of experiment: Cytotoxicity in KB VP-16 R cancer cell line. The following applies: Homo sapiens. Format: functional, cell-based.
Assay [4] addresses T1, DNA topoisomerase 1 (Homo sapiens) (UniProt P11387).
T1 sequence (whole entry): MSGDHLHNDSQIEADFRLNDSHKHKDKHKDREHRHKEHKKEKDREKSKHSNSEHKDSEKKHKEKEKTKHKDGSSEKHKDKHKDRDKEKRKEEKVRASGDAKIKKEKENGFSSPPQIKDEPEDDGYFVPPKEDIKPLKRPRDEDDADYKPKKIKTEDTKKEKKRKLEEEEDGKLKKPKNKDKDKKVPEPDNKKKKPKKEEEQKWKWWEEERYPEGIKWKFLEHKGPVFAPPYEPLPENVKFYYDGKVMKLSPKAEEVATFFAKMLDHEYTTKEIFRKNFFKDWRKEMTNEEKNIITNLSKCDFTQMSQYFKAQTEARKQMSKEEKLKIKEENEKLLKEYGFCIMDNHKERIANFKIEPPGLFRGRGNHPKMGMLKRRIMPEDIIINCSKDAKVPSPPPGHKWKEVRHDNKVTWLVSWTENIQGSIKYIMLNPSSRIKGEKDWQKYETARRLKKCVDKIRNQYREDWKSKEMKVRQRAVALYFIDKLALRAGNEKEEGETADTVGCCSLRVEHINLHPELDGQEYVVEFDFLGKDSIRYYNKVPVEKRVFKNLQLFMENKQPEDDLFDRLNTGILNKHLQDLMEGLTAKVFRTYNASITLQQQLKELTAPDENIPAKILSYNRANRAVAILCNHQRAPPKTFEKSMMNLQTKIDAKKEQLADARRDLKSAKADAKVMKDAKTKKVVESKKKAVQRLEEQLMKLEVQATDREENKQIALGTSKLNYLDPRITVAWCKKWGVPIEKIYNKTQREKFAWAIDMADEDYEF
As to the kind of experiment: Compound was tested for the inhibition of Topoisomerase I when administered at a dose of 25 ug/mL.

Values after ≈ are worked out from the molar mass of the structure shown.

By IC50 is commonly meant the concentration that gives 50% inhibition. A low value points to greater potency in that assay.

With `CC[C@@]1(O)C(=O)OCc2c1cc1n(c2=O)Cc2c-1nc1ccccc1c2/C=N/NC(=O)C(N)CCSC.Cl` (stereo partly specified), the IC50 was 2 µg/mL with HepG2; 0.2 µg/mL in the assay on KB VCR R; 0.1 µg/mL in the assay on KB [1]; 1 µg/mL with MCF7; 0.8 µg/mL in the assay on SW480; 0.5 µg/mL in the assay on KB [3]. Besides, the Activity in assay [2] is reported as 111%.

`CC[C@@]1(O)C(=O)OCc2c1cc1n(c2=O)Cc2c-1nc1ccccc1c2/C=N/NC(=O)C(N)CO.Cl` (stereo partly specified): the half-maximal inhibitory concentration (IC50) with HepG2 was determined as 3.5 µg/mL; in the assay on KB VCR R, 3 µg/mL; with KB [1] it was 0.12 µg/mL; with MCF7 it was 1 µg/mL; in the assay with SW480, 1 µg/mL; in the assay with KB [3], 5 µg/mL. Further, in assay [4], the Topoisomerase I inhibition relative to reference (%) came out at 145%. For the same compound, the Activity in assay [2] came out at 79.8%.

With `CC[C@@]1(O)C(=O)OCc2c1cc1n(c2=O)Cc2c-1nc1ccccc1c2/C=N/NC(=O)C(N)CC(C)C.Cl` (stereo partly specified), the IC50 with HepG2 is 0.4 µg/mL; in the assay on KB VCR R, 0.4 µg/mL; with KB [1], 0.1 µg/mL; in the assay on MCF7, 0.15 µg/mL; in the assay with SW480, 0.04 µg/mL; in the assay on KB [3], 1 µg/mL. Moreover, the Topoisomerase I inhibition relative to reference (%) in assay [4] was 136%. In assay [2], this compound gave an Activity of 111.7%.

`CC[C@@]1(O)C(=O)OCc2c1cc1n(c2=O)Cc2c-1nc1ccccc1c2/C=N/NC(=O)CN.Cl`: the IC50 in the assay with HepG2 was 0.6 µg/mL; in the assay on KB VCR R it was 1 µg/mL; in the assay with KB [1] it was 0.1 µg/mL; in the assay on MCF7 it was 0.4 µg/mL; with SW480 it was 0.1 µg/mL; with KB [3] it was 3 µg/mL. The Topoisomerase I inhibition relative to reference (%) in assay [4] came out at 116%. The compound further gave an Activity in assay [2] of 110.3%.

Consider `CC[C@@]1(O)C(=O)OCc2c1cc1n(c2=O)Cc2cc3ccccc3nc2-1` [CAMPTOTHECIN], for which the IC50 worked out at 0.09 µg/mL (≈ 0.258 µM) in the assay with HepG2; 0.03 µg/mL (≈ 0.0861 µM) in the assay with KB VCR R; 0.01 µg/mL (≈ 0.0287 µM) with KB [1]; 0.02 µg/mL (≈ 0.0574 µM) with MCF7; 0.01 µg/mL (≈ 0.0287 µM) in the assay with SW480; 0.04 µg/mL (≈ 0.115 µM) in the assay on KB [3]. In assay [2], this compound had an Activity of 100%.

For `CC[C@@]1(O)C(=O)OCc2c1cc1n(c2=O)Cc2c-1nc1ccccc1c2/C=N/NC(=O)C1CCCN1.Cl` (stereo partly specified), the concentration for half-maximal inhibition (IC50) stood at 1.25 µg/mL in the assay on HepG2; 5 µg/mL in the assay on KB VCR R; 0.04 µg/mL in the assay with KB [1]; 0.8 µg/mL in the assay on MCF7; 0.7 µg/mL in the assay with SW480; 0.6 µg/mL in the assay with KB [3]. Further, the Topoisomerase I inhibition relative to reference (%) in assay [4] worked out at 100%. This compound returned an Activity in assay [2] of 154.6%.

For `CC[C@@]1(O)C(=O)OCc2c1cc1n(c2=O)Cc2c-1nc1ccccc1c2/C=N/NC(=O)C(C)N.Cl` (stereo partly specified), the IC50 is 2.5 µg/mL with HepG2; 3 µg/mL in the assay on KB VCR R; 0.1 µg/mL in the assay with KB [1]; 1 µg/mL in the assay with MCF7; 0.6 µg/mL in the assay on SW480; 5 µg/mL in the assay with KB [3]. In assay [4], the Topoisomerase I inhibition relative to reference (%) was 98%. In assay [2], this compound displayed an Activity of 93.7%.

`CC[C@@]1(O)C(=O)OCc2c1cc1n(c2=O)Cc2c-1nc1ccccc1c2/C=N/NC(=O)C(N)Cc1ccc(O)cc1.Cl` (stereo partly specified): the IC50 in the assay with HepG2 came out at 1 µg/mL; in the assay on KB VCR R, 1 µg/mL; with KB [1], 0.1 µg/mL; in the assay on MCF7, 5 µg/mL; with SW480 it was 0.4 µg/mL; in the assay on KB [3] it was 5 µg/mL. In assay [2], this compound displayed an Activity of 181%.

These data come from ChEMBL document CHEMBL1127248, “Novel water-solutle (7-(acylhydrazono)-formyl camptothecins as potent inhibitors of DNA topoisomerase I” (Bioorg Med Chem Lett, 1994).
